From patent publication US12507703B2, “Methods, devices and compositions for preserving human milk” (The Trustees of Princeton University, priority 2023, dated 2025)
Several values for one entry are separate records, joined by “and”; a condition that tells them apart may be missing. Equal entries are not always repeated.

System: lipase
Test: Lipase/lipolysis assay (EnzChek Lipase Substrate, quenched BODIPY-fatty acid conjugate) on stored human milk; also: test concentration or dose not given here

Row | Compound | Lipase (RFU)
1 | C[C@H]1O[C@@H](O[C@H]2[C@@H](O)C[C@H](O[C@H]3[C@@H](O)C[C@H](O[C@H]4CC[C@@]5(C)[C@H](CC[C@@H]6[C@@H]5CC[C@]5(C)[C@@H](C7=CC(=O)OC7)CC[C@]65O)C4)O[C@@H]3C)O[C@@H]2C)C[C@H](O)[C@@H]1O [Digitoxin] | 1074.946 RFU
2 | CCCCCCCCCCCCC/C=C/[C@@H](O)[C@@H](N)CO [D-erythro-Sphingosine] | 823.3956 RFU
3 | CC(C)C(=O)O[C@H](CC(=O)O)C[N+](C)(C)C.[Cl-] [Isobutyryl-L-carnitine (chloride)] | 1069.653 RFU
4 | CC(C)CCC[C@@H](C)[C@H]1CC[C@H]2C3=C(CC[C@]12C)[C@@]1(C)CC[C@H](O)CC1=CC3 [8-Dehydrocholesterol] | 707.3733 RFU
5 | c1ccc2c(c1)Nc1ccccc1S2 [Phenothiazine] | 725.1361 RFU
6 | N[C@@H](CCC(=O)N[C@@H](Cc1ccccc1)C(=O)O)C(=O)O [γ-Glu-Phe] | 1077.051 RFU
7 | CCCCC/C=C\C/C=C\CCCCCCCC(=O)O[C@H](COC(=O)CCCCCCCCCCCCCCCCC)COP(=O)([O-])OCC[N+](C)(C)C | 1049.632 RFU
8 | O=C([O-])O.[K+] [Potassium bicarbonate] | 726.638 RFU
9 | γ-Oryzanol | 1128.852 RFU
10 | trans-Zeatin | 1016.786 RFU
11 | COc1cc(-c2oc3cc(OC)c(OC)c(O)c3c(=O)c2OC)ccc1O [Chrysosplenetin] | 1129.025 RFU
12 | CCCCCCCCCCCCCCCCCCCCCC(=O)O[C@H]1CC[C@@]2(C)C(=CC[C@H]3[C@@H]4CC[C@H]([C@H](C)CCCC(C)C)[C@@]4(C)CC[C@@H]32)C1 [Cholesteryl behenate] | 935.1979 RFU
13 | OC[C@@H](O)[C@H](O)[C@H](O)[C@@H](O)CO [Dulcite] | 1020.567 RFU
14 | Dextrin | 915.3079 RFU
15 | CC(=O)[C@H]1CC[C@H]2[C@@H]3CC[C@H]4CC(=O)CC[C@]4(C)[C@H]3CC[C@]12C [5a-Pregnane-3,20-dione] | 1117.705 RFU
16 | C[C@H](O)[C@H](O)C1=Nc2c(nc(N)[nH]c2=O)NC1 [7,8-Dihydro-L-biopterin] | 1090.909 RFU
17 | CC(=O)C1=CC[C@H]2[C@@H]3CCC4=CC(=O)CC[C@]4(C)[C@H]3CC[C@]12C [Compound 16-Dehydroprogesterone] | 1000.658 RFU
18 | COc1ccc([C@@H]2CC(=O)c3c(O)cc(O[C@@H]4O[C@H](CO[C@@H]5O[C@@H](C)[C@H](O)[C@@H](O)[C@H]5O)[C@@H](O)[C@H](O)[C@H]4O)cc3O2)cc1O [Hesperidin] | 595.5734 RFU and 766.088 RFU
19 | CC(C)=CCC[C@](C)(O)[C@H]1CC[C@]2(C)[C@@H]1[C@H](O)C[C@@H]1[C@@]3(C)CC[C@H](O)C(C)(C)[C@@H]3[C@@H](O[C@@H]3O[C@H](CO)[C@@H](O)[C@H](O)[C@H]3O)C[C@]12C [Ginsenoside Rh1] | 665.2277 RFU
20 | O=C(O)C[C@@H](O)C(=O)O [D-Malic Acid] | 752.7528 RFU
21 | COc1cc(/C=C/C(=O)OCC[N+](C)(C)C)cc(OC)c1O [Sinapine] | 1084.597 RFU
22 | CC1=C(C=O)C(C)(C)CC=C1 [Safranal] | 1026.753 RFU and 1118.736 RFU
23 | CC(C)=CCC/C(C)=C/CC/C(C)=C/CC[C@]1(C)CCc2cc(O)cc(C)c2O1 [δ-Tocotrienol] | 1061.05 RFU
24 | CC1=CC(=O)CC(C)(C)[C@@]1(O)/C=C/C(C)=C\C(=O)O [Abscisic acid] | 1087.943 RFU
25 | CC(=O)[C@@]1(O)CC[C@H]2[C@@H]3CC=C4C[C@@H](O)CC[C@]4(C)[C@H]3CC[C@@]21C [Compound 17a-Hydroxypregnenolone] | 861.6395 RFU
